# Data as given in ChEMBL document CHEMBL1127579, “Novel, potent luteinizing hormone-releasing hormone antagonists with improved solubility in water” (1994).
# Tests used:
# Format in all cases: functional
# [1] = species on record: Rattus norvegicus; assay: Antiovulatory activity expressed as ratio of rats ovulated/total rats at a dose of 0.5 microg; 5/5
# [2] = species on record: Rattus norvegicus; assay: Evaluated for histamine releasing activity
# [3] = species on record: Rattus norvegicus; assay: Antiovulatory activity expressed as ratio of rats ovulated/total rats at a dose of 1.0 ug; […]
# [4] = species on record: Rattus norvegicus; assay: Antiovulatory activity expressed as ratio of rats ovulated/total rats at a dose of 0.5 microg; 2/9
# [5] = species on record: Rattus norvegicus; assay: Antiovulatory activity expressed as ratio of rats ovulated/total rats at a dose of 1.0 ug; 1/6
# [6] = species on record: Rattus norvegicus; assay: Antiovulatory activity expressed as ratio of rats ovulated/total rats at a dose of 0.5 microg; 3/13
# [7] = species on record: Rattus norvegicus; assay: Antiovulatory activity expressed as ratio of rats ovulated/total rats at a dose of 0.5 microg; 6/6
# [8] = species on record: Rattus norvegicus; assay: Antiovulatory activity expressed as ratio of rats ovulated/total rats at a dose of 0.5 microg; 7/7
# [9] = species on record: Rattus norvegicus; assay: Antiovulatory activity expressed as ratio of rats ovulated/total rats at a dose of 1.0 ug
# [10] = species on record: Rattus norvegicus; assay: Antiovulatory activity expressed as ratio of rats ovulated/total rats at a dose of 0.5 microg; 0/8
# [11] = species on record: Rattus norvegicus; assay: Antiovulatory activity expressed as ratio of rats ovulated/total rats at a dose of 0.25 microg; 6/8
# [12] = species on record: Rattus norvegicus; assay: Antiovulatory activity expressed as ratio of rats ovulated/total rats at a dose of 0.5 microg; 3/5
# [13] = species on record: Rattus norvegicus; assay: Antiovulatory activity expressed as ratio of rats ovulated/total rats at a dose of 0.5 microg; 2/6
# [14] = species on record: Rattus norvegicus; assay: Antiovulatory activity expressed as ratio of rats ovulated/total rats at a dose of 0.5 microg; 5/6
# [15] = species on record: Rattus norvegicus; assay: Antiovulatory activity expressed as ratio of rats ovulated/total rats at a dose of 0.5 microg; 4/6
structure (smiles),measurement,setting,value
CC(C)C[C@H](NC(=O)[C@@H](CCCCNC(=O)c1ccc(N)nc1)NC(=O)[C@H](CCCCNC(=O)c1ccccn1)NC(=O)[C@@H](NC(=O)[C@@H](Cc1cccnc1)NC(=O)[C@@H](Cc1ccc(Cl)cc1)NC(=O)[C@H](N)Cc1ccc2ccccc2c1)[C@@H](C)O)C(=O)N[C@@H](CCCN=C(N)N)C(=O)N1CCC[C@H]1C(=O)N[C@H](C)C(=O)O,Ratio,[1],5
CC(=O)N[C@H](Cc1ccc2ccccc2c1)C(=O)N[C@H](Cc1ccc(Cl)cc1)C(=O)N[C@H](Cc1cccnc1)C(=O)N[C@@H](CO)C(=O)N[C@@H](CCCCNC(=O)c1cccnc1)C(=O)N[C@H](CCCCNC(=O)c1cnccn1)C(=O)N[C@@H](CC(C)C)C(=O)N[C@@H](CCCCN)C(=O)N1CCC[C@H]1C(=O)N[C@H](C)C(=O)O,ED50,[2],263 µg/mL
same,Ratio,[3],1
same,Ratio,[4],2
CC(=O)N[C@H](Cc1ccc2ccccc2c1)C(=O)N[C@H](Cc1ccc(Cl)cc1)C(=O)N[C@H](Cc1cccnc1)C(=O)N[C@@H](CO)C(=O)N[C@@H](CCCCNC(=O)c1ccccn1)C(=O)N[C@H](CCCCNC(=O)c1nccnc1N)C(=O)N[C@@H](CC(C)C)C(=O)N[C@@H](CCCCNC(C)C)C(=O)N1CCC[C@H]1C(=O)N[C@H](C)C(=O)O,Ratio,[5],1
same,ED50,[2],100 µg/mL
same,Ratio,[6],3
CC(=O)N[C@H](Cc1ccc2ccccc2c1)C(=O)N[C@H](Cc1ccc(Cl)cc1)C(=O)N[C@H](Cc1cccnc1)C(=O)N[C@@H](CO)C(=O)N[C@@H](CCCCNC(=O)c1ccccn1)C(=O)N[C@H](CCCCNC(=O)c1cnccn1)C(=O)N[C@@H](CC(C)C)C(=O)N[C@@H](CCCCN)C(=O)N1CCC[C@H]1C(=O)N[C@H](C)C(=O)O,Number of rats ovulated,[7],6
CC(=O)N[C@H](Cc1ccc2ccccc2c1)C(=O)N[C@H](Cc1ccc(Cl)cc1)C(=O)N[C@H](Cc1cccnc1)C(=O)N[C@@H](CO)C(=O)N[C@@H](CCCCNC(=O)c1ccccn1)C(=O)N[C@H](CCCCNC(=O)c1cccnc1N)C(=O)N[C@@H](CC(C)C)C(=O)N[C@@H](CCCN=C(N)N)C(=O)N1CCC[C@H]1C(=O)N[C@H](C)C(=O)O,Number of rats ovulated,[8],7
CC(=O)N[C@H](Cc1ccc2ccccc2c1)C(=O)N[C@H](Cc1ccc(Cl)cc1)C(=O)N[C@H](Cc1cccnc1)C(=O)N[C@@H](CO)C(=O)N[C@@H](CCCCNC(=O)c1ccc(N)nc1)C(=O)N[C@H](CCCCNC(=O)c1ccc(N)nc1)C(=O)N[C@@H](CC(C)C)C(=O)N[C@@H](CCCCNC(C)C)C(=O)N1CCC[C@H]1C(=O)N[C@H](C)C(=O)O,Number of rats ovulated,[8],7
CC(=O)N[C@H](Cc1ccc2ccccc2c1)C(=O)N[C@H](Cc1ccc(Cl)cc1)C(=O)N[C@H](Cc1cccnc1)C(=O)N[C@@H](CO)C(=O)N[C@@H](CCCCNC(=O)c1cccc(N)n1)C(=O)N[C@H](CCCCNC(=O)c1cccc(N)n1)C(=O)N[C@@H](CC(C)C)C(=O)N[C@@H](CCCN=C(N)N)C(=O)N1CCC[C@H]1C(=O)N[C@H](C)C(=O)O,Number of rats ovulated,[7],6
CC(=O)N[C@H](Cc1ccc2ccccc2c1)C(=O)N[C@H](Cc1ccc(Cl)cc1)C(=O)N[C@H](Cc1cccnc1)C(=O)N[C@@H](CO)C(=O)N[C@@H](CCCCNC(=O)c1ccccn1)C(=O)N[C@H](CCCCNC(=O)c1nccnc1N)C(=O)N[C@@H](CC(C)C)C(=O)N[C@@H](CCCN=C(N)N)C(=O)N1CCC[C@H]1C(=O)N[C@H](C)C(=O)O,Number of rats ovulated,[7],6
CC(=O)N[C@H](Cc1ccc2ccccc2c1)C(=O)N[C@H](Cc1ccc(Cl)cc1)C(=O)N[C@H](Cc1cccnc1)C(=O)N[C@@H](CO)C(=O)N[C@@H](CCCCNC(=O)c1ccccn1)C(=O)N[C@H](CCCNC(=O)c1ccc(N)nc1)C(=O)N[C@@H](CC(C)C)C(=O)N[C@@H](CCCN=C(N)N)C(=O)N1CCC[C@H]1C(=O)N[C@H](C)C(=O)O,Ratio,[9],0
same,ED50,[2],100 µg/mL
same,Ratio,[10],0
same,Ratio,[11],6
CC(C)C[C@H](NC(=O)[C@@H](CCCCNC(=O)c1ccc(N)nc1)NC(=O)[C@H](Cc1ccc(O)cc1)NC(=O)[C@H](CO)NC(=O)[C@@H](Cc1cccnc1)NC(=O)[C@@H](Cc1ccc(Cl)cc1)NC(=O)[C@H](N)Cc1ccc2ccccc2c1)C(=O)N[C@@H](CCCN=C(N)N)C(=O)N1CCC[C@H]1C(=O)N[C@H](C)C(=O)O,Ratio,[12],3
CC(=O)N[C@H](Cc1ccc2ccccc2c1)C(=O)N[C@H](Cc1ccc(Cl)cc1)C(=O)N[C@H](Cc1cccnc1)C(=O)N[C@@H](CO)C(=O)N[C@@H](CCCCNC(=O)c1ccccn1)C(=O)N[C@H](CCCCNC(=O)c1cccc(N)n1)C(=O)N[C@@H](CC(C)C)C(=O)N[C@@H](CCCN=C(N)N)C(=O)N1CCC[C@H]1C(=O)N[C@H](C)C(=O)O,Ratio,[13],2
CC(=O)N[C@H](Cc1ccc2ccccc2c1)C(=O)N[C@H](Cc1ccc(Cl)cc1)C(=O)N[C@H](Cc1cccnc1)C(=O)N[C@@H](CO)C(=O)N[C@@H](CCCNC(=O)c1cnccn1)C(=O)N[C@H](CCCCNC(=O)c1ccc(N)nc1)C(=O)N[C@@H](CC(C)C)C(=O)N[C@@H](CCCN=C(N)N)C(=O)N1CCC[C@H]1C(=O)N[C@H](C)C(=O)O,Number of rats ovulated,[7],6
CC(=O)N[C@H](Cc1ccc2ccccc2c1)C(=O)N[C@H](Cc1ccc(Cl)cc1)C(=O)N[C@H](Cc1cccnc1)C(=O)N[C@@H](CO)C(=O)N[C@@H](CCCCNC(=O)c1cnccn1)C(=O)N[C@H](CCCCNC(=O)c1cnccn1)C(=O)N[C@@H](CC(C)C)C(=O)N[C@@H](CCCCN)C(=O)N1CCC[C@H]1C(=O)N[C@H](C)C(=O)O,Ratio,[14],5
CC(=O)N[C@H](Cc1ccc2ccccc2c1)C(=O)N[C@H](Cc1ccc(Cl)cc1)C(=O)N[C@H](Cc1cccnc1)C(=O)N[C@@H](CO)C(=O)N[C@@H](CCCCNC(=O)c1cccc(N)n1)C(=O)N[C@H](CCCCNC(=O)c1cccc(N)n1)C(=O)N[C@@H](CC(C)C)C(=O)N[C@@H](CCCCNC(C)C)C(=O)N1CCC[C@H]1C(=O)N[C@H](C)C(=O)O,Number of rats ovulated,[8],7
CC(=O)N[C@H](Cc1ccc2ccccc2c1)C(=O)N[C@H](Cc1ccc(Cl)cc1)C(=O)N[C@H](Cc1cccnc1)C(=O)N[C@@H](CO)C(=O)N[C@@H](CCCCNC(=O)c1ccccn1)C(=O)N[C@H](CCCCNC(=O)c1ncccc1N)C(=O)N[C@@H](CC(C)C)C(=O)N[C@@H](CCCCNC(C)C)C(=O)N1CCC[C@H]1C(=O)N[C@H](C)C(=O)O,Ratio,[15],4
CC(=O)N[C@H](Cc1ccc2ccccc2c1)C(=O)N[C@H](Cc1ccc(Cl)cc1)C(=O)N[C@H](Cc1cccnc1)C(=O)N[C@@H](CO)C(=O)N[C@@H](CCCCNC(=O)c1cccnc1N)C(=O)N[C@H](CCCCNC(=O)c1cccnc1N)C(=O)N[C@@H](CC(C)C)C(=O)N[C@@H](CCCCNC(C)C)C(=O)N1CCC[C@H]1C(=O)N[C@H](C)C(=O)O,Number of rats ovulated,[8],7
CNC[C@@H](NC(=O)[C@@H]1CCCN1C(=O)[C@H](CCCN=C(N)N)NC(=O)[C@H](CC(C)C)NC(=O)[C@@H](CCCCNC(=O)c1ccc(N)nc1)NC(=O)[C@H](CCCCNC(=O)c1ccccn1)NC(=O)[C@H](CO)NC(=O)[C@@H](Cc1cccnc1)NC(=O)[C@@H](Cc1ccc(Cl)cc1)NC(=O)[C@H](N)Cc1ccc2ccccc2c1)C(=O)O,Ratio,[9],0
same,ED50,[2],31 µg/mL
same,Ratio,[10],0
same,Ratio,[11],6
CC(=O)N[C@H](Cc1ccc2ccccc2c1)C(=O)N[C@H](Cc1ccc(Cl)cc1)C(=O)N[C@H](Cc1cccnc1)C(=O)N[C@@H](CO)C(=O)N[C@@H](CCCCNC(=O)c1ccc(N)nc1)C(=O)N[C@H](CCCCNC(=O)c1ccc(N)nc1)C(=O)N[C@@H](CC(C)C)C(=O)N[C@@H](CCCN=C(N)N)C(=O)N1CCC[C@H]1C(=O)N[C@H](C)C(=O)O,Number of rats ovulated,[7],6
CC(=O)N[C@H](Cc1cnc2ccccc2c1)C(=O)N[C@H](Cc1ccc(Cl)cc1)C(=O)N[C@H](Cc1cccnc1)C(=O)N[C@@H](CO)C(=O)N[C@@H](CCCNC(=O)c1cnccn1)C(=O)N[C@H](CCCNC(=O)c1ccc(N)nc1)C(=O)N[C@@H](CC(C)C)C(=O)N[C@@H](CCCN=C(N)N)C(=O)N1CCC[C@H]1C(=O)N[C@H](C)C(=O)O,Ratio,[1],5
CC(=O)N[C@H](Cc1ccc2ccccc2c1)C(=O)N[C@H](Cc1ccc(Cl)cc1)C(=O)N[C@H](Cc1cccnc1)C(=O)N[C@@H](CO)C(=O)N[C@@H](CCCCNC(=O)c1nccnc1N)C(=O)N[C@H](CCCCNC(=O)c1nccnc1N)C(=O)N[C@@H](CC(C)C)C(=O)N[C@@H](CCCN=C(N)N)C(=O)N1CCC[C@H]1C(=O)N[C@H](C)C(=O)O,Ratio,[15],4
C[C@@H](NC(=O)[C@@H]1CCCN1C(=O)[C@H](CCCN=C(N)N)NC(=O)[C@H](Cc1c[nH]cn1)NC(=O)[C@@H](CCCCNC(=O)c1ccc(N)nc1)NC(=O)[C@H](CCCCNC(=O)c1ccccn1)NC(=O)[C@H](CO)NC(=O)[C@@H](Cc1cccnc1)NC(=O)[C@@H](Cc1ccc(Cl)cc1)NC(=O)[C@H](N)Cc1ccc2ccccc2c1)C(=O)O,Number of rats ovulated,[7],6
CC(=O)N[C@H](Cc1ccc2ccccc2c1)C(=O)N[C@H](Cc1ccc(Cl)cc1)C(=O)N[C@H](Cc1cccnc1)C(=O)N[C@@H](CO)C(=O)N[C@@H](CCCCNC(=O)c1cnccn1)C(=O)N[C@H](CCCCNC(=O)c1cccnc1)C(=O)N[C@@H](CC(C)C)C(=O)N[C@@H](CCCCN)C(=O)N1CCC[C@H]1C(=O)N[C@H](C)C(=O)O,Number of rats ovulated,[7],6
CC(=O)N[C@H](Cc1ccc2ccccc2c1)C(=O)N[C@H](Cc1ccc(Cl)cc1)C(=O)N[C@H](Cc1cccnc1)C(=O)N[C@@H](CO)C(=O)N[C@@H](CCCCNC(=O)c1cccnc1N)C(=O)N[C@H](CCCCNC(=O)c1cccnc1N)C(=O)N[C@@H](CC(C)C)C(=O)N[C@@H](CCCN=C(N)N)C(=O)N1CCC[C@H]1C(=O)N[C@H](C)C(=O)O,Number of rats ovulated,[7],6
